Data: publication PMC11374673, “Discovery of isoquinoline sulfonamides as allosteric gyrase inhibitors with activity against fluoroquinolone-resistant bacteria” (Nature Chemistry, 2024)
In brackets after ≈: the same amount, converted by molar mass. Several values for one entry are separate records, joined by “and”; a condition that tells them apart may be missing. Identical values can stand only once. Each block holds one molecule with its values, some of them ahead of it.

Columns and labels:
E. coli W3110 = test: MIC by broth microdilution; type: cell-based, Escherichia coli; settings: for MIC: Escherichia coli, W3110, WT, broth microdilution, read-out: MIC E. coli W3110
Procedure: (§1) MIC was determined by broth microdilution. Single-colony cultures were grown to exponential phase (OD600 of 0.5) aerobically at 37 °C. In case of strains from the Keio collection, 50 µg ml^−1 kanamycin was supplemented to the media to ascertain a homogeneous population. The bacterial suspensions were diluted 100-fold in CAMHB and 50 µl was added to a twofold serial dilution series of test compounds (50 µl per well) in polypropylene 96-well microtitre plates to reach a volume of 100 µl. The plates were sealed with breathable membranes and incubated overnight at 37 °C with constant shaking (600 r.p.m.).

K. pneumoniae ATCC 29665 = test: MIC by broth microdilution; type: cell-based, Klebsiella pneumoniae; settings: Klebsiella pneumoniae, ATCC29665, broth microdilution; read-out: MIC K. pneumoniae ATCC 29665
Procedure: as §1

HepG2 = test: Cytotoxicity assay (MTT); type: cell-based, human; settings: for IC50: Homo sapiens, HepG2, 24 h, MTT, 24 h
Procedure: (§2) HepG2 (ATCC HB-8065) and HEK293T (ATCC CRL-3216) cell lines were cultured at 37 °C and 7% CO2 in Dulbecco’s modified Eagle medium (Sigma-Aldrich, D6546) with GlutaMax, penicillin (100 µg ml^−1), streptomycin (100 µg ml^−1) and 10% fetal calf serum. Cells were passaged twice a week by first detaching using 0.05% trypsin in phosphate-buffered saline (PBS) and then diluting to appropriate confluence. Compound cytotoxicity was evaluated using the standard (3-(4,5-dimethylthiazol-2-yl)-2,5-diphenyltetrazolium bromide (MTT) assay protocol (MTT assay protocol for cell viability and proliferation, Merck) with slight changes. HepG2 and HEK293T cells were seeded at a density of 1.5 × 10^4 cells per well in a clear 96-well tissue culture treated plate in a final volume of 100 µl in Dulbecco’s modified Eagle medium, supplemented with fetal bovine serum (1%), GlutaMax and penicillin/streptomycin. Cells were incubated for 24 h at 37 °C, 7% CO2 to allow cells to attach to the plates. […] Incubation was done for 24 h at 37 °C, 7% CO2. After the incubation, MTT was added to each well at a final concentration of 0.40 mg ml^−1. The plates were then incubated for 2 h at 37 °C, 7% CO2. Medium was carefully removed via suction, and purple formazan crystals were resuspended in 100 µl DMSO. Absorbance was read at 570 nm using a Clariostar plate reader with MARS (V4.20). The data were then analysed with GraphPad Prism software. IC50 values were calculated using non-linear fitted curve with variable slope settings, with values adjusted for background (plotted absorbance (ABS)sample = (ABSsample – ABSbackground) / (ABSvehicle – ABSbackground)). Technical triplicates for each condition were used, along with biological duplicates.

HEK293T = test: Cytotoxicity assay (MTT); type: cell-based, human; settings: for MTT data (raw reading) / MTT data (raw readout): HEK293T; for IC50: 24 h, MTT
Procedure: as §2

MIC (E. coli W3110): 6.25 µM (≈ 2.82 µg/mL)
MIC (K. pneumoniae ATCC 29665): > 50 µM
Structure (SMILES): O=S(=O)(NCCNCc1ccc(-c2ccc(Cl)cc2)cc1)c1cccc2cnccc12 [Compound 61]
MTT data (raw reading) (HepG2; HepG2, 0.023 uM, n = 1): 0.473 and 0.481 and 0.514
MTT data (raw reading) (HepG2; HepG2, 0.023 uM, n = 2): 0.517 and 0.561 and 0.567
MTT data (raw reading) (HepG2; HepG2, 0.068 uM, n = 1): 0.534 and 0.501 and 0.482
MTT data (raw reading) (HepG2; HepG2, 0.068 uM, n = 2): 0.479 and 0.534 and 0.570
MTT data (raw reading) (HepG2; HepG2, 0.21 uM, n = 1): 0.462 and 0.484 and 0.480
MTT data (raw reading) (HepG2; HepG2, 0.21 uM, n = 2): 0.576 and 0.558 and 0.573
MTT data (raw reading) (HepG2; HepG2, 0.62 uM, n = 1): 0.454 and 0.449
MTT data (raw reading) (HepG2; HepG2, 0.62 uM, n = 2): 0.464 and 0.502 and 0.467
MTT data (raw reading) (HepG2; HepG2, 1.85 uM, n = 1): 0.401 and 0.414 and 0.404
MTT data (raw reading) (HepG2; HepG2, 1.85 uM, n = 2): 0.454 and 0.456 and 0.471
MTT data (raw reading) (HepG2; HepG2, 5.6 uM, n = 1): 0.017 and 0.021 and 0.022
MTT data (raw reading) (HepG2; HepG2, 5.6 uM, n = 2): 0.042 and 0.022 and 0.021
MTT data (raw reading) (HepG2; HepG2, 16.7 uM, n = 1): 0.009 and 0.013
IC50 (HepG2): 2.8 µM
MTT data (raw reading) (HEK293T; 0.023 uM, n = 1): 0.895 and 1.117 and 0.888
MTT data (raw reading) (HEK293T; 0.023 uM, n = 2): 0.606 and 0.823 and 0.767
MTT data (raw reading) (HEK293T; 0.068 uM, n = 1): 1.228 and 1.100 and 1.289
MTT data (raw reading) (HEK293T; 0.068 uM, n = 2): 0.594 and 0.790 and 0.797
MTT data (raw reading) (HEK293T; 0.21 uM, n = 1): 1.193 and 1.192 and 1.600
MTT data (raw reading) (HEK293T; 0.21 uM, n = 2): 0.478 and 0.738 and 0.728
MTT data (raw reading) (HEK293T; 0.62 uM, n = 1): 0.992 and 0.937 and 0.903
MTT data (raw reading) (HEK293T; 0.62 uM, n = 2): 0.540 and 0.686 and 0.703
MTT data (raw reading) (HEK293T; 1.85 uM, n = 1): 0.640 and 0.552 and 0.507
MTT data (raw reading) (HEK293T; 1.85 uM, n = 2): 0.345 and 0.480 and 0.465
MTT data (raw reading) (HEK293T; 5.6 uM, n = 1): 0.114 and 0.126 and 0.094
MTT data (raw reading) (HEK293T; 5.6 uM, n = 2): 0.048 and 0.047 and 0.040
MTT data (raw reading) (HEK293T; 16.7 uM, n = 1): 0.021 and 0.012 and 0.016
IC50 (HEK293T; Homo sapiens, HEK-293T): 1 µM

MIC (E. coli W3110): 6.25 µM (≈ 2.61 µg/mL)
MIC (K. pneumoniae ATCC 29665): 12.5 µM (≈ 5.22 µg/mL)
Structure (SMILES): O=S(=O)(NCCNCc1ccc(-c2ccccc2)cc1)c1cccc2cnccc12 [Compound 56]
antimicrobial activity (E. coli W3110; relative to parent compound): equally potent
MTT data (raw readout) (HepG2; HepG2, 0.023 uM, experiment n = 1, technical triplicates): 0.559 and 0.503 and 0.453
MTT data (raw readout) (HepG2; HepG2, 0.023 uM, experiment n = 2, technical triplicates): 0.586 and 0.547 and 0.578
MTT data (raw readout) (HepG2; HepG2, 0.068 uM, experiment n = 1, technical triplicates): 0.490 and 0.488 and 0.494
MTT data (raw readout) (HepG2; HepG2, 0.068 uM, experiment n = 2, technical triplicates): 0.579 and 0.616 and 0.615
MTT data (raw readout) (HepG2; HepG2, 0.21 uM, experiment n = 1, technical triplicates): 0.573 and 0.504 and 0.507
MTT data (raw readout) (HepG2; HepG2, 0.21 uM, experiment n = 2, technical triplicates): 0.577 and 0.574 and 0.618
MTT data (raw readout) (HepG2; HepG2, 0.62 uM, experiment n = 1, technical triplicates): 0.495 and 0.510 and 0.493
MTT data (raw readout) (HepG2; HepG2, 0.62 uM, experiment n = 2, technical triplicates): 0.602 and 0.579 and 0.597
MTT data (raw readout) (HepG2; HepG2, 1.85 uM, experiment n = 1, technical triplicates): 0.533 and 0.518 and 0.529
MTT data (raw readout) (HepG2; HepG2, 1.85 uM, experiment n = 2, technical triplicates): 0.634 and 0.597 and 0.638
MTT data (raw readout) (HepG2; HepG2, 5.6 uM, experiment n = 1, technical triplicates): 0.550 and 0.534 and 0.503
MTT data (raw readout) (HepG2; HepG2, 5.6 uM, experiment n = 2, technical triplicates): 0.619 and 0.618 and 0.638
MTT data (raw readout) (HepG2; HepG2, 16.7 uM, experiment n = 1, technical triplicates): 0.186 and 0.116 and 0.134
MTT data (raw readout) (HepG2; HepG2, 50 uM, experiment n = 1, technical triplicates): 0.0047 and 0.0027
IC50 (HepG2): 16.7 µM
MTT data (raw readout) (HEK293T; 0.023 uM, experiment n = 1, technical triplicates): 0.760 and 0.712 and 0.710
MTT data (raw readout) (HEK293T; 0.023 uM, experiment n = 2, technical triplicates): 0.814 and 0.790 and 0.847
MTT data (raw readout) (HEK293T; 0.068 uM, experiment n = 1, technical triplicates): 0.777 and 0.824 and 0.787
MTT data (raw readout) (HEK293T; 0.068 uM, experiment n = 2, technical triplicates): 0.796 and 0.816 and 0.794
MTT data (raw readout) (HEK293T; 0.21 uM, experiment n = 1, technical triplicates): 0.818 and 0.751 and 0.739
MTT data (raw readout) (HEK293T; 0.21 uM, experiment n = 2, technical triplicates): 0.813 and 0.836 and 0.832
MTT data (raw readout) (HEK293T; 0.62 uM, experiment n = 1, technical triplicates): 0.783 and 0.761 and 0.744
MTT data (raw readout) (HEK293T; 0.62 uM, experiment n = 2, technical triplicates): 0.785 and 0.778 and 0.750
MTT data (raw readout) (HEK293T; 1.85 uM, experiment n = 1, technical triplicates): 0.680 and 0.683 and 0.658
MTT data (raw readout) (HEK293T; 1.85 uM, experiment n = 2, technical triplicates): 0.720 and 0.749 and 0.788
MTT data (raw readout) (HEK293T; 5.6 uM, experiment n = 1, technical triplicates): 0.523 and 0.537 and 0.570
MTT data (raw readout) (HEK293T; 5.6 uM, experiment n = 2, technical triplicates): 0.582 and 0.590 and 0.593
MTT data (raw readout) (HEK293T; 16.7 uM, experiment n = 1, technical triplicates): 0.243 and 0.263 and 0.287
MTT data (raw readout) (HEK293T; 16.7 uM, experiment n = 2, technical triplicates): 0.271 and 0.304 and 0.282
MTT data (raw readout) (HEK293T; 50 uM, experiment n = 1, technical triplicates): 0.032 and 0.041 and 0.051
MTT data (raw readout) (HEK293T; 50 uM, experiment n = 2, technical triplicates): 0.036 and 0.023 and 0.035
IC50 (HEK293T; Homo sapiens, HEK-293T): 10 µM
IC50 (HEK293T): 10.4 µM
